Values after ≈ are worked out from the molar mass of the structure shown. Structures can show the parent of a compound that is named as a salt. Bounds are passed on as bounds.

In the first test the test system is Escherichia coli ATCC 25922. The test is described as follows: Minimal Inhibitory Concentration (MIC) determination, broth microdilution (CLSI M07-A10). The following applies: Escherichia coli, ATCC25922, strain Escherichia coli ATCC 25922, 18-24 hours at 35±2° C., lowest concentration for complete growth inhibition (no visible growth), read-out: Escherichia coli growth inhibition MIC. It counts as cell-based. In a few lines: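 Broth microdilution per CLSI M07-A10; compounds in 2-fold serial dilutions; inoculum from 0.5 McFarland suspension diluted 1:200 in broth. Incubated 18-24 h at 35±2° C in ambient air; MIC (μg/mL) taken as lowest concentration giving no visible growth.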
On the technique in general: In broth dilution the organism is exposed to a series of concentrations in liquid medium.
Take `Cc1nc2c(F)c3c(c(F)c2[nH]1)CC(CNCCC1CN(c2cnc4c(n2)NC(=O)CO4)C(=O)O1)C3` (centres unmarked) [Example 1, 6-[5-[2-[(4,8-Difluoro-2-methyl-3,5,6,7-tetrahydrocyclopenta[f]benzimidazol-6-yl)methylamino]ethyl]-2-oxo-oxazolidin-3-yl]-4H-pyrazino[2,3-b][1,4]oxazin-3-one]: the MIC (usually the least concentration at which growth counts as inhibited) is 0.5 µg/mL (≈ 1 µM). On the same count and under the same terms, the value for `CN(C)Cc1nc2c(F)c3c(c(F)c2[nH]1)CC(CNCCC1CN(c2cnc4c(n2)NC(=O)CO4)C(=O)O1)C3` (centres unmarked) [Example 2, 6-[5-[2-[[2-[(dimethylamino)methyl]-4,8-difluoro-3,5,6,7-tetrahydrocyclopenta[f]benzimidazol-6-yl]methylamino]ethyl]-2-oxo-oxazolidin-3-yl]-4H-pyrazino[2,3-b][1,4]oxazin-3-one] was 0.5 µg/mL (≈ 0.922 µM); that for `CN(C)Cc1nc2c(F)c3c(c(F)c2[nH]1)CC(CN1CCC2(CC1)CN(c1cnc4c(n1)NC(=O)CO4)C(=O)O2)C3` [Example 3, 6-[8-[[2-[(dimethylamino)methyl]-4,8-difluoro-3,5,6,7-tetrahydrocyclopenta[f]benzimidazol-6-yl]methyl]-2-oxo-1-oxa-3,8-diazaspiro[4.5]decan-3-yl]-4H-pyrazino[2,3-b][1,4]oxazin-3-one] was 0.25 µg/mL (≈ 0.44 µM); that for `CC(C)(O)c1nc2c(F)c3c(c(F)c2[nH]1)CC(CN1CCC2(CC1)CN(c1cnc4c(n1)NC(=O)CO4)C(=O)O2)C3` [Example 4, 6-[8-[[4,8-difluoro-2-(1-hydroxy-1-methyl-ethyl)-3,5,6,7-tetrahydrocyclopenta[f]benzimidazol-6-yl]methyl]-2-oxo-1-oxa-3,8-diazaspiro[4.5]decan-3-yl]-4H-pyrazino[2,3-b][1,4]oxazin-3-one] was 0.5 µg/mL (≈ 0.878 µM). With `O=C1COc2ncc(N3CC4(CCN(CC5Cc6c(c(F)c7[nH]c(CN8CCS(=O)(=O)CC8)nc7c6F)C5)CC4)OC3=O)nc2N1` [Example 5, 6-[8-[[2-[(1,1-dioxo-1,4-thiazinan-4-yl)methyl]-4,8-difluoro-3,5,6,7-tetrahydrocyclopenta[f]benzimidazol-6-yl]methyl]-2-oxo-1-oxa-3,8-diazaspiro[4.5]decan-3-yl]-4H-pyrazino[2,3-b][1,4]oxazin-3-one], the MIC stood at 2 µg/mL (≈ 3.04 µM). Turning to `CN1CCOC(c2nc3c(F)c4c(c(F)c3[nH]2)CC(CN2CCC3(CC2)CN(c2cnc5c(n2)NC(=O)CO5)C(=O)O3)C4)C1` (centres unmarked) [Example 6, 6-[8-[[4,8-difluoro-2-(4-methylmorpholin-2-yl)-3,5,6,7-tetrahydrocyclopenta[f]benzimidazol-6-yl]methyl]-2-oxo-1-oxa-3,8-diazaspiro[4.5]decan-3-yl]-4H-pyrazino[2,3-b][1,4]oxazin-3-one], the MIC came to 1 µg/mL (≈ 1.64 µM). Consider `CN(C)CCc1nc2c(F)c3c(c(F)c2[nH]1)CC(CN1CCC2(CC1)CN(c1cnc4c(n1)NC(=O)CO4)C(=O)O2)C3` [Example 7, 6-[8-[[2-[2-(dimethylamino)ethyl]-4,8-difluoro-3,5,6,7-tetrahydrocyclopenta[f]benzimidazol-6-yl]methyl]-2-oxo-1-oxa-3,8-diazaspiro[4.5]decan-3-yl]-4H-pyrazino[2,3-b][1,4]oxazin-3-one], for which the MIC was found to be 0.125 µg/mL (≈ 0.215 µM). The same measure, in the same setting: the value for `O=C1COc2ncc(N3CC4(CCN(CC5Cc6c(c(F)c7[nH]c(CN8CCOCC8)nc7c6F)C5)CC4)OC3=O)nc2N1` [Example 8, 6-[8-[[4,8-difluoro-2-(morpholinomethyl)-3,5,6,7-tetrahydrocyclopenta[f]benzimidazol-6-yl]methyl]-2-oxo-1-oxa-3,8-diazaspiro[4.5]decan-3-yl]-4H-pyrazino[2,3-b][1,4]oxazin-3-one] was 1 µg/mL (≈ 1.64 µM). As for `CNCc1nc2c(F)c3c(c(F)c2[nH]1)CC(CN1CCC2(CC1)CN(c1cnc4c(n1)NC(=O)CO4)C(=O)O2)C3` [Example 9, 6-[8-[[4,8-Difluoro-2-(methylaminomethyl)-3,5,6,7-tetrahydrocyclopenta[f]benzimidazol-6-yl]methyl]-2-oxo-1-oxa-3,8-diazaspiro[4.5]decan-3-yl]-4H-pyrazino[2,3-b][1,4]oxazin-3-one], the MIC is 0.125 µg/mL (≈ 0.225 µM). Take `NCc1nc2c(F)c3c(c(F)c2[nH]1)CC(CN1CCC2(CC1)CN(c1cnc4c(n1)NC(=O)CO4)C(=O)O2)C3.O=C(O)C(F)(F)F` [Example 10, 6-[8-[[2-(aminomethyl)-4,8-difluoro-3,5,6,7-tetrahydrocyclopenta[f]benzimidazol-6-yl]methyl]-2-oxo-1-oxa-3,8-diazaspiro[4.5]decan-3-yl]-4H-pyrazino[2,3-b][1,4]oxazin-3-one; 2,2,2-trifluoroacetic acid]: the MIC is 0.125 µg/mL. Take `O=C(O)C(F)(F)F.O=C1COc2ncc(N3CC4(CCN(CC5Cc6c(c(F)c7[nH]c([C@@H]8CCCN8)nc7c6F)C5)CC4)OC3=O)nc2N1` [Example 11, 6-[8-[[4,8-difluoro-2-[(2S)-pyrrolidin-2-yl]-3,5,6,7-tetrahydrocyclopenta[f]benzimidazol-6-yl]methyl]-2-oxo-1-oxa-3,8-diazaspiro[4.5]decan-3-yl]-4H-pyrazino[2,3-b][1,4]oxazin-3-one; 2,2,2-trifluoroacetic acid]: the MIC is 0.125 µg/mL. For `CNCc1nc2c(F)c3c(cc2[nH]1)CC(CN1CCC2(CC1)CN(c1cnc4c(n1)NC(=O)CO4)C(=O)O2)C3.O=C(O)C(F)(F)F` (centres unmarked) [Example 12, 6-[8-[[8-fluoro-2-(methylaminomethyl)-1,5,6,7-tetrahydrocyclopenta[f]benzimidazol-6-yl]methyl]-2-oxo-1-oxa-3,8-diazaspiro[4.5]decan-3-yl]-4H-pyrazino[2,3-b][1,4]oxazin-3-one; 2,2,2-trifluoroacetic acid], the MIC came to 0.125 µg/mL. On the same count and under the same terms, the value for `CNCCc1nc2c(F)c3c(c(F)c2[nH]1)CC(CN1CCC2(CC1)CN(c1cnc4c(n1)NC(=O)CO4)C(=O)O2)C3.O=C(O)C(F)(F)F` [Example 13, 6-[8-[[4,8-difluoro-2-[2-(methylamino)ethyl]-3,5,6,7-tetrahydrocyclopenta[f]benzimidazol-6-yl]methyl]-2-oxo-1-oxa-3,8-diazaspiro[4.5]decan-3-yl]-4H-pyrazino[2,3-b][1,4]oxazin-3-one; 2,2,2-trifluoroacetic acid] was 0.25 µg/mL; that for `O=C(O)C(F)(F)F.O=C1COc2ccc(N3CC4(CCN(CC5Cc6c(c(F)c7[nH]c([C@H]8CCNC8)nc7c6F)C5)CC4)OC3=O)nc2N1` [Example 15, 6-[8-[[4,8-difluoro-2-[(3S)-pyrrolidin-3-yl]-3,5,6,7-tetrahydrocyclopenta[f]benzimidazol-6-yl]methyl]-2-oxo-1-oxa-3,8-diazaspiro[4.5]decan-3-yl]-4H-pyrido[3,2-b][1,4]oxazin-3-one; 2,2,2-trifluoroacetic acid] was 0.25 µg/mL; that for `O=C(O)C(F)(F)F.O=C1COc2ncc(N3CC4(CCN(CC5Cc6c(c(F)c7[nH]c(C8CNCCO8)nc7c6F)C5)CC4)OC3=O)nc2N1` (centres unmarked) [Example 16, 6-[8-[(4,8-difluoro-2-morpholin-2-yl-3,5,6,7-tetrahydrocyclopenta[f]benzimidazol-6-yl)methyl]-2-oxo-1-oxa-3,8-diazaspiro[4.5]decan-3-yl]-4H-pyrazino[2,3-b][1,4]oxazin-3-one; 2,2,2-trifluoroacetic acid] was 0.25 µg/mL. Consider `CN[C@H](C)c1nc2c(F)c3c(c(F)c2[nH]1)CC(CN1CCC2(CC1)CN(c1cnc4c(n1)NC(=O)CO4)C(=O)O2)C3.O=C(O)C(F)(F)F` [Example 17, 6-[8-[[4,8-difluoro-2-[(1R)-1-(methylamino)ethyl]-3,5,6,7-tetrahydrocyclopenta[f]benzimidazol-6-yl]methyl]-2-oxo-1-oxa-3,8-diazaspiro[4.5]decan-3-yl]-4H-pyrazino[2,3-b][1,4]oxazin-3-one; 2,2,2-trifluoroacetic acid], for which the MIC came out at 0.125 µg/mL. Turning to `O=C(O)C(F)(F)F.O=C1COc2ncc(N3CC4(CCN(CC5Cc6c(c(F)c7[nH]c([C@@H]8COCCN8)nc7c6F)C5)CC4)OC3=O)nc2N1` [Example 18, 6-[8-[[4,8-difluoro-2-[(3R)-morpholin-3-yl]-3,5,6,7-tetrahydrocyclopenta[f]benzimidazol-6-yl]methyl]-2-oxo-1-oxa-3,8-diazaspiro[4.5]decan-3-yl]-4H-pyrazino[2,3-b][1,4]oxazin-3-one; 2,2,2-trifluoroacetic acid], the MIC is 0.5 µg/mL. Turning to `CNCc1nc2c(F)c3c(c(F)c2[nH]1)CC(CNC1CC2(C1)CN(c1cnc4c(n1)NC(=O)CO4)C(=O)O2)C3` (centres unmarked) [Example 19, 6-[2-[[4,8-difluoro-2-(methylaminomethyl)-3,5,6,7-tetrahydrocyclopenta[f]benzimidazol-6-yl]methylamino]-6-oxo-5-oxa-7-azaspiro[3.4]octan-7-yl]-4H-pyrazino[2,3-b][1,4]oxazin-3-one], the MIC came out at 0.5 µg/mL (≈ 0.925 µM).

With `CNCCc1nc2c(F)c3c(c(F)c2n1C)CC(CN1CCC2(CC1)CN(c1cnc4c(n1)NC(=O)CO4)C(=O)O2)C3.O=C(O)C(F)(F)F` (centres unmarked) [Example 20, 6-[8-[[4,8-difluoro-1-methyl-2-[2-(methylamino)ethyl]-6,7-dihydro-5H-cyclopenta[f]benzimidazol-6-yl]methyl]-2-oxo-1-oxa-3,8-diazaspiro[4.5]decan-3-yl]-4H-pyrazino[2,3-b][1,4]oxain-3-one; 2,2,2-trifluoroacetic acid], the MIC was 0.25 µg/mL.

Staying with this test, now noted: strain Escherichia coli ATCC 25922, 18-24 hours at 35±2° C., lowest concentration for complete growth inhibition (no visible growth), dihydrochloride.
Take `NCCn1nc2cc(F)c3c(c2n1)CC(CN1CCC2(CC1)CN(c1ccc4c(n1)NC(=O)CO4)C(=O)O2)C3` (single isomer, unassigned) [Example 171, 6-[2-Oxo-8-[[2-(2-aminoethyl)-5-fluoro-7,8-dihydro-6H-cyclopenta[e]benzotriazol-7-yl]methyl]-1-oxa-3,8-diazaspiro[4.5]decan-3-yl]-4H-pyrido[3,2-b][1,4]oxazin-3-one dihydrochloride]: the “Escherichia coli growth inhibition MIC” value was at most 0.06 µg/mL.

The values are drawn from patent US20240252506A1 (Hoffmann-La Roche Inc., priority 2021, published 2024).
